Measurements: ChEMBL document CHEMBL1201861, “Genomics of Drug Sensitity in Cancer screening data, Wellcome Trust Sanger Institute”
pIC50: −log10 of the molar value.

What was measured:
Assay in all cases: cells
MEG-01 = type: functional, cell-based, Homo sapiens; conditions: Homo sapiens, MEG-01
Description: SANGER: Inhibition of human MEG-01 cell growth in a cell viability assay.

Lu-65 = type: functional, cell-based, Homo sapiens; conditions: Homo sapiens, Lu-65
Description: SANGER: Inhibition of human LU-65 cell growth in a cell viability assay.

TE-8 = type: functional, cell-based, Homo sapiens; conditions: Homo sapiens, TE-8
Description: SANGER: Inhibition of human TE-8 cell growth in a cell viability assay.

BV-173 = type: functional, cell-based, Homo sapiens; conditions: Homo sapiens, BV-173
Description: SANGER: Inhibition of human BV-173 cell growth in a cell viability assay.

NKM-1 = type: functional, cell-based, Homo sapiens; conditions: Homo sapiens, NKM-1
Description: SANGER: Inhibition of human NKM-1 cell growth in a cell viability assay.

MZ2-MEL = type: functional, cell-based, Homo sapiens; conditions: Homo sapiens, MZ2-MEL
Description: SANGER: Inhibition of human MZ2-MEL cell growth in a cell viability assay.

TGBC1TKB = type: functional, cell-based, Homo sapiens; conditions: Homo sapiens, TGBC1TKB
Description: SANGER: Inhibition of human TGBC1TKB cell growth in a cell viability assay.

TE-10 = type: functional, cell-based, Homo sapiens; conditions: Homo sapiens, TE-10
Description: SANGER: Inhibition of human TE-10 cell growth in a cell viability assay.

SK-MEL-1 = type: functional, cell-based, Homo sapiens; conditions: Homo sapiens, SK-MEL-1
Description: SANGER: Inhibition of human SK-MEL-1 cell growth in a cell viability assay.

EW-1 = type: functional, cell-based, Homo sapiens; conditions: Homo sapiens, EW-1
Description: SANGER: Inhibition of human EW-1 cell growth in a cell viability assay.

CTB-1 = type: functional, cell-based, Homo sapiens; conditions: Homo sapiens, CTB-1
Description: SANGER: Inhibition of human CTB-1 cell growth in a cell viability assay.

NCI-H1092 = type: functional, cell-based, Homo sapiens; conditions: Homo sapiens, NCI-H1092
Description: SANGER: Inhibition of human NCI-H1092 cell growth in a cell viability assay.

HL-60 = type: functional, cell-based, Homo sapiens; conditions: Homo sapiens, HL-60
Description: SANGER: Inhibition of human HL-60 cell growth in a cell viability assay.

SW 954 = type: functional, cell-based, Homo sapiens; conditions: Homo sapiens, SW 954
Description: SANGER: Inhibition of human SW954 cell growth in a cell viability assay.

HT-144 = type: functional, cell-based, Homo sapiens; conditions: Homo sapiens, HT-144
Description: SANGER: Inhibition of human HT-144 cell growth in a cell viability assay.

NCI-H446 = type: functional, cell-based, Homo sapiens; conditions: Homo sapiens, NCI-H446
Description: SANGER: Inhibition of human NCI-H446 cell growth in a cell viability assay.

RPMI-8226 = type: functional, cell-based, Homo sapiens; conditions: Homo sapiens, RPMI-8226
Description: SANGER: Inhibition of human RPMI-8226 cell growth in a cell viability assay.

EW-11 = type: functional, cell-based, Homo sapiens; conditions: Homo sapiens, EW-11
Description: SANGER: Inhibition of human EW-11 cell growth in a cell viability assay.

A388 = type: functional, cell-based; conditions: Homo sapiens
Description: SANGER: Inhibition of human A388 cell growth in a cell viability assay.

KARPAS-45 = type: functional, cell-based, Homo sapiens; conditions: Homo sapiens, KARPAS-45
Description: SANGER: Inhibition of human KARPAS-45 cell growth in a cell viability assay.

NCI-H82 = type: functional, cell-based, Homo sapiens; conditions: Homo sapiens, NCI-H82
Description: SANGER: Inhibition of human NCI-H82 cell growth in a cell viability assay.

PSN1 = type: functional, cell-based, Homo sapiens; conditions: Homo sapiens, PSN1
Description: SANGER: Inhibition of human PSN1 cell growth in a cell viability assay.

DOHH-2 = type: functional, cell-based, Homo sapiens; conditions: Homo sapiens, DOHH-2
Description: SANGER: Inhibition of human DOHH-2 cell growth in a cell viability assay.

NEC8 = type: functional, cell-based, Homo sapiens; conditions: Homo sapiens, NEC8
Description: SANGER: Inhibition of human NEC8 cell growth in a cell viability assay.

NCI-H69 = type: functional, cell-based, Homo sapiens; conditions: Homo sapiens, NCI-H69
Description: SANGER: Inhibition of human NCI-H69 cell growth in a cell viability assay.

Calu-6 = type: functional, cell-based, Homo sapiens; conditions: Homo sapiens, Calu-6
Description: SANGER: Inhibition of human Calu-6 cell growth in a cell viability assay.

A3-KAW = type: functional, cell-based, Homo sapiens; conditions: Homo sapiens, A3-KAW
Description: SANGER: Inhibition of human A3-KAW cell growth in a cell viability assay.

P30-OHK = type: functional, cell-based, Homo sapiens; conditions: Homo sapiens, P30-OHK
Description: SANGER: Inhibition of human P30-OHK cell growth in a cell viability assay.

JVM-2 = type: functional, cell-based, Homo sapiens; conditions: Homo sapiens, JVM-2
Description: SANGER: Inhibition of human JVM-2 cell growth in a cell viability assay.

HD-MY-Z = type: functional, cell-based, Homo sapiens; conditions: Homo sapiens, HD-MY-Z
Description: SANGER: Inhibition of human HD-MY-Z cell growth in a cell viability assay.

KNS-42 = type: functional, cell-based; conditions: Homo sapiens
Description: SANGER: Inhibition of human KNS-42 cell growth in a cell viability assay.

NCI-H1155 = type: functional, cell-based, Homo sapiens; conditions: Homo sapiens, NCI-H1155
Description: SANGER: Inhibition of human NCI-H1155 cell growth in a cell viability assay.

EKVX = type: functional, cell-based, Homo sapiens; conditions: Homo sapiens, EKVX
Description: SANGER: Inhibition of human EKVX cell growth in a cell viability assay.

SK-N-DZ = type: functional, cell-based, Homo sapiens; conditions: Homo sapiens, SK-N-DZ; read-out: IC50
Description: SANGER: Inhibition of human SK-N-DZ cell growth in a cell viability assay.

NCI-H2126 = type: functional, cell-based, Homo sapiens; conditions: Homo sapiens, NCI-H2126
Description: SANGER: Inhibition of human NCI-H2126 cell growth in a cell viability assay.

OMC-1 = type: functional, cell-based, Homo sapiens; conditions: Homo sapiens, OMC-1
Description: SANGER: Inhibition of human OMC-1 cell growth in a cell viability assay.

NCI-H1581 = type: functional, cell-based, Homo sapiens; conditions: Homo sapiens, NCI-H1581
Description: SANGER: Inhibition of human NCI-H1581 cell growth in a cell viability assay.

KINGS-1 = type: functional, cell-based, Homo sapiens; conditions: Homo sapiens, KINGS-1
Description: SANGER: Inhibition of human KINGS-1 cell growth in a cell viability assay.

NCI-H23 = type: functional, cell-based, Homo sapiens; conditions: Homo sapiens, NCI-H23
Description: SANGER: Inhibition of human NCI-H23 cell growth in a cell viability assay.

SK-UT-1 = type: functional, cell-based, Homo sapiens; conditions: Homo sapiens, SK-UT-1
Description: SANGER: Inhibition of human SK-UT-1 cell growth in a cell viability assay.

SBC-1 = type: functional, cell-based, Homo sapiens; conditions: Homo sapiens, SBC-1
Description: SANGER: Inhibition of human SBC-1 cell growth in a cell viability assay.

VA-ES-BJ = type: functional, cell-based, Homo sapiens; conditions: Homo sapiens, VA-ES-BJ
Description: SANGER: Inhibition of human VA-ES-BJ cell growth in a cell viability assay.

ALL-PO = type: functional, cell-based, Homo sapiens; conditions: Homo sapiens, ALL-PO
Description: SANGER: Inhibition of human ALL-PO cell growth in a cell viability assay.

D283 Med = type: functional, cell-based, Homo sapiens; conditions: Homo sapiens, D283 Med
Description: SANGER: Inhibition of human D-283MED cell growth in a cell viability assay.

DJM-1 = type: functional, cell-based, Homo sapiens; conditions: Homo sapiens, DJM-1
Description: SANGER: Inhibition of human DJM-1 cell growth in a cell viability assay.

SNU-5 = type: functional, cell-based, Homo sapiens; conditions: Homo sapiens, SNU-5
Description: SANGER: Inhibition of human NCI-SNU-5 cell growth in a cell viability assay.

RCC10RGB = type: functional, cell-based, Homo sapiens; conditions: Homo sapiens, RCC10RGB
Description: SANGER: Inhibition of human RCC10RGB cell growth in a cell viability assay.

LOX IMVI = type: functional, cell-based, Homo sapiens; conditions: Homo sapiens, LOX IMVI
Description: SANGER: Inhibition of human LOXIMVI cell growth in a cell viability assay.

HT = type: functional, cell-based, Homo sapiens; conditions: Homo sapiens, HT
Description: SANGER: Inhibition of human HT cell growth in a cell viability assay.

## COc1ccc(-c2cc3nccn3c(Nc3ncccc3C(N)=O)n2)cc1OC
MEG-01
  pIC50: 5.28
Lu-65
  pIC50: 5.65
TE-8
  pIC50: 5.61
BV-173
  pIC50: < 5.10
NKM-1
  pIC50: 5.98
MZ2-MEL
  pIC50: 5.46
TGBC1TKB
  pIC50: < 5.10
TE-10
  pIC50: 5.76
SK-MEL-1
  pIC50: < 5.10
EW-1
  pIC50: 5.93
CTB-1
  pIC50: < 5.10
NCI-H1092
  pIC50: < 5.10
HL-60
  pIC50: < 5.10
SW 954
  pIC50: < 5.10
HT-144
  pIC50: 5.43
NCI-H446
  pIC50: 5.30
RPMI-8226
  pIC50: < 5.10
EW-11
  pIC50: < 5.10
A388
  pIC50: 5.23
KARPAS-45
  pIC50: 5.72
NCI-H82
  pIC50: < 5.10
PSN1
  pIC50: 6.05
DOHH-2
  pIC50: 5.69
NEC8
  pIC50: 5.11
NCI-H69
  pIC50: < 5.10
Calu-6
  pIC50: 5.16
A3-KAW
  pIC50: 6.13
P30-OHK
  pIC50: 6.37
JVM-2
  pIC50: < 5.10
HD-MY-Z
  pIC50: < 5.10
KNS-42
  pIC50: < 5.10
NCI-H1155
  pIC50: < 5.10
EKVX
  pIC50: < 5.10
SK-N-DZ
  pIC50: < 5.10
NCI-H2126
  pIC50: < 5.10
OMC-1
  pIC50: < 5.10
NCI-H1581
  pIC50: < 5.10
KINGS-1
  pIC50: < 5.10
NCI-H23
  pIC50: < 5.10
SK-UT-1
  pIC50: 5.20
SBC-1
  pIC50: < 5.10
VA-ES-BJ
  pIC50: < 5.10
ALL-PO
  pIC50: 6.25
D283 Med
  pIC50: < 5.10
DJM-1
  pIC50: < 5.10
SNU-5
  pIC50: < 5.10
RCC10RGB
  pIC50: < 5.10
LOX IMVI
  pIC50: 5.58
HT
  pIC50: 5.21

## COC(=O)[C@H](CCSC)NC(=O)c1ccc(NC[C@@H](N)CS)cc1-c1ccccc1
MEG-01
  pIC50: < 5.99
Lu-65
  pIC50: < 5.99
TE-8
  pIC50: < 5.99
BV-173
  pIC50: < 5.99
NKM-1
  pIC50: < 5.99
MZ2-MEL
  pIC50: < 5.99
TGBC1TKB
  pIC50: < 5.99
TE-10
  pIC50: < 5.99
SK-MEL-1
  pIC50: < 5.99
EW-1
  pIC50: < 5.99
CTB-1
  pIC50: < 5.99
NCI-H1092
  pIC50: < 5.99
HL-60
  pIC50: < 5.99
SW 954
  pIC50: < 5.99
HT-144
  pIC50: < 5.99
NCI-H446
  pIC50: < 5.99
RPMI-8226
  pIC50: < 5.99
EW-11
  pIC50: < 5.99
A388
  pIC50: < 5.99
KARPAS-45
  pIC50: < 5.99
NCI-H82
  pIC50: < 5.99
PSN1
  pIC50: < 5.99
DOHH-2
  pIC50: < 5.99
NEC8
  pIC50: < 5.99
NCI-H69
  pIC50: < 5.99
Calu-6
  pIC50: < 5.99
A3-KAW
  pIC50: < 5.99
P30-OHK
  pIC50: < 5.99
JVM-2
  pIC50: < 5.99
HD-MY-Z
  pIC50: < 5.99
KNS-42
  pIC50: < 5.99
NCI-H1155
  pIC50: < 5.99
EKVX
  pIC50: < 5.99
SK-N-DZ
  pIC50: < 5.99
NCI-H2126
  pIC50: < 5.99
OMC-1
  pIC50: < 5.99
NCI-H1581
  pIC50: < 5.99
KINGS-1
  pIC50: < 5.99
NCI-H23
  pIC50: < 5.99
SK-UT-1
  pIC50: < 5.99
SBC-1
  pIC50: < 5.99
VA-ES-BJ
  pIC50: < 5.99
ALL-PO
  pIC50: < 5.99
D283 Med
  pIC50: < 5.99
DJM-1
  pIC50: < 5.99
SNU-5
  pIC50: < 5.99
RCC10RGB
  pIC50: < 5.99
LOX IMVI
  pIC50: < 5.99
HT
  pIC50: < 5.99
